# Source: patent US20260062426A1, “CYCLIN DEPENDENT KINASE DEGRADERS AND METHODS OF USE THEREOF” (Differentiated Therapeutics Inc, priority 2023, published 2026)
# Tests used:
# Format in all cases: cell-based
# [1] = molecular target: T1, CCNE1 (Homo sapiens, UniProt P24864+P24941); assay: CCNE1 HIBIT PQ (protein quantification), degradation; settings: for CCNE1 HIBIT PQ Max (%): Max = Maximum; for DC50: PQ = Protein Quantification
# T1 construct: host or cells: HEK293
# In short: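 HEK293 cells carrying HiBiT-tagged CCNE1 were grown in EMEM with 10% FBS and seeded in 384-well plates at 1.6×10⁵ cells/well in 50 uL, then incubated overnight at 37° C and 5% CO₂. Compound treatment lasted 6 hours, and CCNE1 protein was then measured with a HiBiT assay. High control was 0.1% DMSO-treated cells and low control was culture medium only. Maximal degradation and DC50 were derived from these readings.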
# [2] = molecular target: T2, CDK2 (Homo sapiens, UniProt P24941); assay: CDK2 HIBIT PQ (protein quantification), degradation; settings: for CDK2 HIBIT PQ Max (%): Max = Maximum; for DC50: PQ = Protein Quantification
# T2 construct: host or cells: HEK293
# In short: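 DC50 and maximal degradation were derived from a HiBiT lytic readout in HEK293 cells carrying HiBiT-tagged CDK2. Cells were seeded in 384-well plates at 1.6×10^5 cells/well in 50 uL of DMEM with 10% FBS, incubated overnight at 37° C and 5% CO2, treated with compound for 6 hours, and then given 20 μL of HiBiT reagent with 20 minutes of shaking at room temperature before an EnVision reading. Wells with 0.1% DMSO served as the high control and wells with medium only as the low control.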
# [3] = molecular target: T3, CDK9 (Homo sapiens, UniProt P50750); assay: CDK9 HIBIT PQ (protein quantification), degradation; settings: for Dmax: Max = Maximum; for DC50: PQ = Protein Quantification
# T3 construct: host or cells: HEK293
# T3 sequence (P50750 whole entry): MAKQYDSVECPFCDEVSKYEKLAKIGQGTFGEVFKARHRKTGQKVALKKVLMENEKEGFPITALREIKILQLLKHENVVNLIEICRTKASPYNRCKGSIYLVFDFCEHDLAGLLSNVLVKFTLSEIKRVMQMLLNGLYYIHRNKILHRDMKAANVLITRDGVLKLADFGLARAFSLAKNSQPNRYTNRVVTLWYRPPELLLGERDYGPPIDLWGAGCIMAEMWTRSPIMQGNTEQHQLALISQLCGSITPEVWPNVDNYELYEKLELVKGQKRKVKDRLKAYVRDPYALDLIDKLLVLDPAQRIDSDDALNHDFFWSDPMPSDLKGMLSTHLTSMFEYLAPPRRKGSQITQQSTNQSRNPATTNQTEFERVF
# In short: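 HEK293 cells bearing HiBiT-tagged CDK9 were cultured in DMEM with 10% FBS, plated into 384-well plates at 1.6×10^5 cells/well in 50 uL, and left overnight at 37° C and 5% CO2. A HiBiT assay measured CDK9 protein after compound treatment, with 0.1% DMSO-treated cells as the high control and culture medium alone as the low control. These readings gave the maximal degradation, Dmax and DC50.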
Compound,CCNE1 HIBIT PQ Max (%) [1],CDK2 HIBIT PQ Max (%) [2],DC50 [2],Dmax [3],DC50 [3],DC50 [1]
CC(C)Oc1c(-c2cn[nH]c2)ncn2nc(Nc3ccc(S(=O)(=O)c4cccc(CN5C6CCC5CN(c5ccc7c(N8CCC(=O)NC8=O)nn(C)c7c5)C6)c4)cc3F)nc12 [Compound 46],48%,95%,3.6 nM,71%,92.1 nM,
CC(C)Oc1c(-c2cn[nH]c2)ncn2nc(Nc3ccc(S(=O)(=O)c4cccc(CN5CCN(c6ccc7c(N8CCC(=O)NC8=O)nn(C)c7c6)CC5(C)C)c4)cc3F)nc12 [Compound 47],72%,97%,6.2 nM,74%,136 nM,55 nM
CC(C)Oc1c(-c2cn[nH]c2)ncn2nc(Nc3ccc(S(=O)(=O)c4cccc(CN5CC6CC5CN6c5ccc6c(N7CCC(=O)NC7=O)nn(C)c6c5)c4)cc3F)nc12 (stereo not shown) [Compound 48],21%,79%,3.1 nM,2%,,
CC(C)Oc1c(-c2cn[nH]c2)ncn2nc(N[C@H]3CCN(S(=O)(=O)c4cccc(CN5CCN(c6ccc7c(N8CCC(=O)NC8=O)nn(C)c7c6)C(C)C5)c4)C[C@H]3C)nc12 (stereo partly shown) [Compound 49],96%,98%,2.2 nM,104%,11.6 nM,9.43 nM
CCC1CN(c2ccc3c(N4CCC(=O)NC4=O)nn(C)c3c2)CCN1Cc1cccc(S(=O)(=O)N2CC[C@H](Nc3nc4c(OC(C)C)c(-c5cn[nH]c5)ncn4n3)[C@H](C)C2)c1 (stereo partly shown) [Compound 50],90%,97%,2.8 nM,96%,23.5 nM,15.2 nM
CC(C)Oc1c(-c2cn[nH]c2)ncn2nc(N[C@H]3CCN(S(=O)(=O)c4cccc(CN5CCN(c6ccc7c(N8CCC(=O)NC8=O)nn(C)c7c6)CC5C)c4)C[C@H]3C)nc12 (stereo partly shown) [Compound 51],92%,98%,2.4 nM,100%,20.2 nM,9.29 nM
CC(C)Oc1c(-c2cn[nH]c2)ncn2nc(N[C@H]3CCN(S(=O)(=O)c4cccc(CN5CCN(c6ccc7c(N8CCC(=O)NC8=O)nn(C)c7c6)CC5(C)C)c4)C[C@H]3C)nc12 [Compound 52],93%,98%,2.8 nM,93%,38.7 nM,13.8 nM
CC(C)Oc1c(-c2cn[nH]c2)ncn2nc(Nc3ccc(S(=O)(=O)N(C)CCCN4CCN(c5ccc6c(c5)n(C)c(=O)n6C5CCC(=O)NC5=O)C[C@@H]4C)cc3F)nc12 (stereo partly shown) [Compound 62],65%,91%,0.1 nM,75%,1.22 nM,0.92 nM
CC(C)Oc1c(-c2cn[nH]c2)ncn2nc(Nc3ccc(S(=O)(=O)N(C)CCCN4CCN(c5ccc6c(c5)n(C)c(=O)n6C5CCC(=O)NC5=O)C[C@H]4C)cc3F)nc12 (stereo partly shown) [Compound 63],66%,92%,< 0.152 nM,85%,2.07 nM,1.24 nM
CC(C)Oc1c(-c2cn[nH]c2)ncn2nc(Nc3ccc(S(=O)(=O)N(C)CCCN4CCN(c5ccc6c(c5)n(C)c(=O)n6C5CCC(=O)NC5=O)C[C@@H]4C(C)C)cc3F)nc12 (stereo partly shown) [Compound 64],65%,89%,0.2 nM,74%,3.38 nM,1.79 nM
CC(C)Oc1c(-c2cn[nH]c2)ncn2nc(Nc3ccc(S(=O)(=O)N(C)CCCN4CCN(c5ccc6c(c5)n(C)c(=O)n6C5CCC(=O)NC5=O)C[C@H]4C(C)C)cc3F)nc12 (stereo partly shown) [Compound 65],39%,85%,0.2 nM,49%,,
